Laboratory results published in ChEMBL document CHEMBL2331377, “Spirocyclic compounds, potent CCR1 antagonists” (Bioorg Med Chem Lett, 2013).
pIC50: −log10 of the molar value.

Experiments:
in vitro [1] = settings: human, Caco-2
in vitro [2] = settings: human
in vitro [3] = settings: human, hepatocytes
in vitro [4] = settings: rat, hepatocytes
[5] = target: T1, C-C chemokine receptor type 1 (Homo sapiens, UniProt P32246); test: Displacement of [125I]MIP-1alpha from human recombinant CCR1 expressed in HEK293 cells after 1.5 hrs; format: cell-based
T1 sequence (P32246 whole entry): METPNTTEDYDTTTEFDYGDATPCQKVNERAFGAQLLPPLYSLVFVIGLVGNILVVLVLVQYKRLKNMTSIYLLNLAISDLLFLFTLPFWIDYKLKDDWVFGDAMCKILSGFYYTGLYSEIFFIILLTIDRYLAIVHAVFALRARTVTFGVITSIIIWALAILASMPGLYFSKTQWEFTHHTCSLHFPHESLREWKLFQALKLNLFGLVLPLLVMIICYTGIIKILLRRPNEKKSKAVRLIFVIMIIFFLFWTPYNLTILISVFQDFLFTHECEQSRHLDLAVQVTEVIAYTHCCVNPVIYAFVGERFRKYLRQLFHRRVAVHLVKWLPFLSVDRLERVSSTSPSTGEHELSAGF

[6] = Clearance in rat liver microsomes; format: ADME, Microsome; settings: read-out: CLH

| Compound | Papp (in vitro [1]) | microsomal CLint (in vitro [2]; liver microsomes) | hepatocyte CLint (in vitro [3]) | hepatocyte CLint (in vitro [4]) | pIC50 [5] | microsomal CLint [6] | microsomal CLint (in vitro [2]; microsomes) |
| --- | --- | --- | --- | --- | --- | --- | --- |
| CC(=O)Nc1ccc(F)cc1OC[C@@H](O)CN1CCC2(CC1)Cc1cc(Cl)ccc1O2 | 17 ×10⁻⁶ cm/s | 13.5 µL/min/mg | 6.1 µL/min/1e6 cells | 17.5 µL/min/1e6 cells | 9.19 |  |  |
| CC(=O)Nc1ccccc1OC[C@@H](O)CN1CCC2(CC1)Cc1cc(Cl)ccc1O2 | 26 ×10⁻⁶ cm/s | < 17 µL/min/mg | 2.5 µL/min/1e6 cells | 26 µL/min/1e6 cells | 9.02 |  |  |
| CC(=O)Nc1ccc(O)cc1OC[C@@H](N)CN1CCC2(CC1)Cc1cc(F)ccc1O2 | 2.7 ×10⁻⁶ cm/s | < 10 µL/min/mg | < 3 µL/min/1e6 cells | < 3 µL/min/1e6 cells | 8.85 | < 10 µL/min/mg |  |
| COc1ccc(NC(C)=O)c(OC[C@@H](N)CN2CCC3(CC2)Cc2cc(F)ccc2O3)c1 |  | 17.4 µL/min/mg | 3.5 µL/min/1e6 cells |  | 8.05 |  |  |
| COc1ccc(NC(C)=O)c(OC[C@@H](O)CN2CCC3(CC2)Cc2cc(Cl)ccc2O3)c1 | 24.4 ×10⁻⁶ cm/s | 55 µL/min/mg |  |  | 9.05 |  |  |
| CC(=O)Nc1ccc(F)cc1OC[C@@H](O)CN1CCC2(CC1)Cc1cc(F)ccc1O2 | 18 ×10⁻⁶ cm/s | 17.8 µL/min/mg | 9.3 µL/min/1e6 cells | 12 µL/min/1e6 cells | 9.44 | 29 µL/min/mg |  |
| CC(=O)Nc1ccc(O)cc1OC[C@@H](O)CN1CCC2(CC1)Cc1cc(Cl)ccc1O2 |  | < 10 µL/min/mg | < 3 µL/min/1e6 cells | 25.7 µL/min/1e6 cells |  |  |  |
| CC(=O)Nc1ccc(O)cc1OC[C@@H](N)CN1CCC2(CC1)Cc1ccccc1O2 | 1.6 ×10⁻⁶ cm/s | < 10 µL/min/mg | < 3 µL/min/1e6 cells | 6.6 µL/min/1e6 cells | 7.74 | 14 µL/min/mg |  |
| COc1ccc(NC(C)=O)c(OC[C@@H](N)CN2CCC3(CC2)Cc2ccccc2O3)c1 |  | 18.8 µL/min/mg |  |  | 7.49 |  |  |
| CC(=O)Nc1ccccc1OC[C@@H](O)CN1CCC2(CC1)Cc1cc(F)ccc1O2 | 16.5 ×10⁻⁶ cm/s | 25.5 µL/min/mg | 11 µL/min/1e6 cells |  | 9.02 |  |  |
| CC(=O)Nc1ccc(O)cc1OC[C@@H](O)CN1CCC2(CC1)Cc1cc(F)ccc1O2 | 6.6 ×10⁻⁶ cm/s |  | < 3.6 µL/min/1e6 cells | 17.6 µL/min/1e6 cells |  |  | < 10 µL/min/mg |
| CC(=O)Nc1ccc(O)cc1OC[C@@H](N)CN1CCC2(CC1)Cc1cc(Cl)ccc1O2 | 2.7 ×10⁻⁶ cm/s | < 10 µL/min/mg | < 3 µL/min/1e6 cells | 4.2 µL/min/1e6 cells | 9.10 | < 10 µL/min/mg |  |
| COc1ccc(NC(C)=O)c(OC[C@@H](N)CN2CCC3(CC2)Cc2cc(Cl)ccc2O3)c1 |  | 12.6 µL/min/mg |  |  | 8.22 |  |  |
